Test results reported in patent US20240277658A1, “NLRP3 ACTIVATORS FOR USE IN THE TREATMENT OF INFECTIOUS DISEASES OR CANCER BY ACTIVATING NLRP3 INFLAMMASOME” (ALBERT-LUDWIGS-UNIVERSITÄT FREIBURG, priority 2020, published 2024).
“And” between values parts separate entries of the source, which are not always exact repeats. Identical values can stand only once.

Columns and labels:
[1] = target: T1, NLRP3 inflammasome (Mus musculus, UniProt Q8R4B8); test: Inflammasome stimulation of BMDCs after pre-incubation with inhibitors (MCC950, KCl, ebselen, cytochalasin D); format: cell-based
T1 construct: endogenous in cells; host or cells: primary mouse bone marrow-derived dendritic cells (BMDCs), LPS-primed
T1 sequence (Q8R4B8 whole entry): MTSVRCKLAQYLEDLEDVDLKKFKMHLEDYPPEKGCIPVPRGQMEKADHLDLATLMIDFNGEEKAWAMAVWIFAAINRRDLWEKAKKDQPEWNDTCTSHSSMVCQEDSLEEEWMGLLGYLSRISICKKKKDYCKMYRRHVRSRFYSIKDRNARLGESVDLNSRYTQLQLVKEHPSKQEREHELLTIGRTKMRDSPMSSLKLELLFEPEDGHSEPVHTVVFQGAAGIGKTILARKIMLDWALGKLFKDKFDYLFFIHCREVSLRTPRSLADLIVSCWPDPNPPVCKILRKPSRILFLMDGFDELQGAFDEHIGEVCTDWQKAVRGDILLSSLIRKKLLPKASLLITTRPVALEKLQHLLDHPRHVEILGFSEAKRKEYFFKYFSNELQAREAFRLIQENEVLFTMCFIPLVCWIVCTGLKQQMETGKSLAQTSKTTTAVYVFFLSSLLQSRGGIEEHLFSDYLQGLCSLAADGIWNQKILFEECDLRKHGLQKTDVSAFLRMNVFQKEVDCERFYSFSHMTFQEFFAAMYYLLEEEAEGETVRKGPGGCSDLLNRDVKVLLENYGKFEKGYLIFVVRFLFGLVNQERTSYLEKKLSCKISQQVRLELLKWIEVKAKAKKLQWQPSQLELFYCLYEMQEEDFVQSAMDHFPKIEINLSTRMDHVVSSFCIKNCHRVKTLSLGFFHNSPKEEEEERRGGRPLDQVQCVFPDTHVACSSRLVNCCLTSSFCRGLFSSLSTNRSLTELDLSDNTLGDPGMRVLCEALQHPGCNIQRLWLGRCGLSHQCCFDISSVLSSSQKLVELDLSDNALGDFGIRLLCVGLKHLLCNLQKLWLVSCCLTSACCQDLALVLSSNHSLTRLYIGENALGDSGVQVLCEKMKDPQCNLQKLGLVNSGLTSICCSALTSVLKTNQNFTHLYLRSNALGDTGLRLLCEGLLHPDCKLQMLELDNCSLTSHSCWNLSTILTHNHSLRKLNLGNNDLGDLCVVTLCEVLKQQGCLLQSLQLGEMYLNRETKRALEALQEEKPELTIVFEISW
Method: For canonical inflammasome activation BMDCs after 7-9 days of differentiation were harvested and counted with a Neubauer Chamber (Hecht Assistant) and the concentration was set to 1 Mio cells ml^−1. 100 μl cell suspension per well were seeded in 96-well plates. The cells were primed with 50 ng ml^−1 E. coli K12 ultra-pure LPS for 3 hours and subsequently treated with canonical inflammasome activators or experimental compounds for 3 hours if not indicated differently (incubation time FIG. 4D, 5, 7, 8, 11, 13-18: 3 h, FIG. 12: 4 h). Concentrations of the stimuli were as follows if not indicated differently: 5 μM nigericin, 100 μM imiquimod (also known as R837), 100 μM CL097, 100 μM R848, […] poly(dA:dT), 300 μg ml^−1 MSU. If an inhibitor was used before stimuli treatment, the inhibitor was added after 2.5 hours of priming and it was incubated for 30 minutes before inflammasome activation. […]
All inflammasome stimulations were performed in three technical replicates for each condition. Lytic cell death was determined via LDH release (see FIGS. 8, 13-16 and 18), cytokines quantified in cell-free supernatants via ELISA (see FIGS. 4D, 7-9, 11-19) and cell lysates and supernatants analyzed via immunoblotting (see FIGS. 5A and 5B) as previously described in detail (Gross, Olaf, 2012 “Measuring the inflammasome”, Methods in molecular biology, Clifton, N.J., 844, pp. 199-222. Schneider, Katharina S.; Thomas, Christina J.; Groß, Olaf, 2013, “Inflammasome activation and inhibition in primary murine bone marrow-derived cells, and assays for IL-1α, IL-1β, and caspase-1”, Methods in molecular biology, Clifton, N.J., 1040, pp. 117-135).

[2] = target: T1, NLRP3 inflammasome; test: IL-1β release from LPS-primed BMDCs (ELISA) as readout of NLRP3 inflammasome activation; format: cell-based
Summary of the method: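 NLRP3 inflammasome activation was read out as IL-1β released into the supernatant, measured by ELISA. Murine BMDCs were primed with LPS (50 ng ml^−1, 3 hours), then incubated with compounds for 3 hours, with each condition run in three technical replicates. Nigericin at 5 μM acted as the positive control activator, and IL-1β release was also expressed as a percentage of that control.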

## O=C(Nc1ccccc1)Nc1ccc2ncccc2c1 [EN22, 1-phenyl-3-(quinolin-6-yl)urea]
[1]; 50 mM extracellular KCl, FIGS. 11 and 17
  dependence of NLRP3 inflammasome activation on potassium efflux from the cell: independently of potassium efflux
[1]; LPS-primed wild-type BMDCs, FIG. 12
  effect of the endocytosis inhibitor cytochalasin D on NLRP3 activation: has no effect
[1]; wild-type BMDCs, compound 50 μM, FIG. 8
  effect of the NLRP3-specific inhibitor MCC950 on inflammasome activation by the compound: completely suppresses
[2]; 10 μM
  Average IL-1β: 10.000 ng/mL
[2]; 10 μM, individual replicate values
  IL-1β: 10.000 ng/mL
[2]; 18.75 μM
  Average IL-1β: 6.322 ng/mL
[2]; 18.75 μM, individual replicate values
  IL-1β: 7.071 ng/mL and 5.864 ng/mL and 6.030 ng/mL
[2]; 25 μM, EN11 series table
  Average IL-1β: 1.474 ng/mL
[2]; 25 μM, individual replicate values, EN11 series table
  IL-1β: 1.387 ng/mL and 1.391 ng/mL and 1.646 ng/mL
[2]; BMDCs from wild-type mice without inhibitor
  time after which inflammasome activation is almost maximum: 30 min
[2]; BMDCs, FIG. 4D
  EC50 for induction of IL-1β, times lower than for imiquimod and CL097: 10 times
[2]; IL-1β release, compound 50 μM, positive control nigericin 5 μM
  Average (% positive control): 128.957 % positive control
[2]; IL-1β, 10 μM, positive control EN22 10 μM
  Average (% positive control): 100.000 % positive control
[2]; IL-1β, 18.75 μM, positive control EN22 18.75 μM
  Average (% positive control): 100.000 % positive control
[2]; IL-1β, 25 μM, positive control EN22 25 μM
  Average (% positive control): 100.000 % positive control
[2]; IL-1β, concentration not given, positive control EN22
  Average (% positive control): 100.000 % positive control
[2]; compound 50 μM, LPS-primed BMDCs
  Average IL-1β: 9.244 ng/mL
[2]; concentration not given, JB series table
  Average IL-1β: 1.957 ng/mL
[2]; concentration not given, individual replicate values, JB series table
  IL-1β: 1.632 ng/mL and 2.095 ng/mL and 2.146 ng/mL
[2]; section 1.2, 25 μM
  Average IL-1β: 5.026 ng/mL
[2]; section 1.2, IL-1β release, 25 μM, positive control EN22 25 μM
  Average (% positive control): 100.000 % positive control
[2]; section 1.2, single replicates, 25 μM
  IL-1β: 4.821 ng/mL and 5.196 ng/mL and 5.062 ng/mL
[2]; single replicates, compound 50 μM, LPS-primed BMDCs
  IL-1β: 8.679 ng/mL and 9.014 ng/mL and 9.589 ng/mL and 8.363 ng/mL and 10.000 ng/mL and 9.819 ng/mL
